These results are taken from patent US20220409696A1, “Heparin-Associated Polypeptides and Uses Thereof” (Juvena Therapeutics, Inc., priority 2021, published 2022).

One data set relates to DM1 human myoblast cells. The experiment in a line: Fusion (% eMyHC area) of DM1 human myoblast. Conditions: 96 h for fusion. Format: cell-based. The method, then: FIG. 7A Bar graph of % EdU+ human myoblast (person) and FIG. 7B % area MyHC in response to IGF2. Myoblast were cultured 72 h for proliferation and 96 h for fusion in the presence of indicated factor. Mean∓S.D. Mean∓SD. Significant p-values (EdU: Vehicle˜IGF2: 6.8E-3, % eMyHC Area: Vehicle˜IGF2: 1.9E-4) (*p<0.05 by Students Two-Tailed T-test, n=3−6).
IGF2 was tested individually for its ability to promote proliferation and/or fusion of human muscle progenitor cells from an individual with myotonic dystrophy type 1 (hMD)—a muscular dystrophy caused by mutations in the DMPK1 gene. […] After 72 or 96 hours, cells were pulsed for 2-5 hours with EdU (30 uM), ethanol fixed, stained with Hoescht 3342, immunostained for proliferation—as measured by the percent of cells staining positive for EdU (% EdU)-, and immunostained for differentiation—as measured by the increase in cellular area staining positive for embryonic myosin heavy chain (% eMyHC) relative to the negative controls, which received media and vehicle only. Wells were imaged on a Keyence BZ-100 at 4×, the images quantified in Cell Profiler, and the statistics were computed in R. Additionally, RNA was extracted from myoblast and select transcript abundances quantified by qPCR. […]

A further data set concerns Aged human myoblasts. The experiment in a line: Myogenic transcription factor expression in aged human myoblasts. It is filed as cell-based. Particulars: compared to fusion media. The method, then: RNA was isolated from each well (RNeasy Mini Kit, Qiagen) and cDNA was obtained by reverse-transcription (High Capacity Reverse Transcription Kit, Thermo Fisher Scientific). Real-time quantitative PCR was performed using QuantStudio3 (Thermo Fisher).
Aged human myoblasts were cultured in well plates. […] Cells that had been cultured with IGF2 had increases in levels of MYOG at 48 hours and levels of MYOD at 72 hours.

The target in data set [1] is Insulin Degrading Enzyme (IDE) (Homo sapiens, UniProt P14735). Particulars: Malito et al. Cell Mol Life Sci. 2008; read-out: affinity of IDE for IGF2 as a substrate; cited from earlier work.
The subject of data set [2] is 10 week old dystrophic mice (mdx). The experiment in a line: D2-mdx Duchenne's muscular dystrophy model, 10 week old mice. It is filed as in vivo. Particulars: 150 ug/kg with 1.2 g/kg sodium butyrate subcutaneously every 24 hours, 14 days. The method, then: Between 3-6 weeks old, the skeletal muscle of mdx mice undergoes severe necrosis followed by an increase in the activation of satellite cells to promote muscle regeneration. Treatment with IGF2 fusion polypeptide described herein can improve the regeneration process and therefore muscle health. Mice were fed ad libitum and housed under controlled conditions of lighting (12-hour light/12-hour dark) and temperature (22-24° C.). Mice were allowed to acclimate for 3 days prior to the initiation of the experiment. During the acclimation period, the weight, forelimb and both limb grip strength as well as in vivo tetanic force were assessed to determine the baseline strength of each mouse. 10 week old dystrophic mice (mdx) were injected with the IGF2 fusion polypeptide with sodium butyrate subcutaneously for 14 days. At day 7, forelimb and both grip strength are measured as described in Example 4. BrdU was injected on days 12, 13 and 14. On days 13, 14 and 15, forelimb and both limb grip strength and in vivo tetanic force were tested, and an endurance test to determine max distance and max speed was performed using methods described in Example 4.
Mice were euthanized. The right tibialis anterior and gastrocnemius were collected, immersed in Tissue-TEK OCT and then flash frozen in a chilled isopentane bath precooled in liquid nitrogen and stored at −80° C. Tissue was sectioned and stained for Laminin to determine the cross sectional area (CSA) of muscle fibers, for eMyHC to measure new fiber formation and for BrdU to assess the proliferation rate. The left anterior tibialis and gastrocnemius were collected and flash frozen in liquid nitrogen for molecular analysis that include qPCR and western blot.

Data set [3] is described as follows: Backbone cleavage on expression from CHO cells (reducing SDS-PAGE, Western blot). On the procedure:
The amino acid backbone of IGF2 is cleaved when expressed from Chinese Hamster Ovary (CHO) cells (FIG. 13A) as visualized on a reducing SDS-PAGE and Western blot (FIG. 13B). The CHO cells were grown in a 37° C. incubator with a humidified atmosphere of 8% CO2 on an orbital shaker platform with a shaking speed 125 rpm to reach 4E6 cells/mL, followed by transferring the calculated volume of cells to fresh, pre-warmed ExpiCHO™ Expression Medium in a shake flask. Incubated flasks in a 37° C. incubator with a humidified atmosphere of 8% CO2 shook on an orbital shaker platform until cultures reached a density of 4×106-6×10^6 viable cells/mL. After mixing each plasmid with 100 ul SFM in a microtube; ExpiFectamine (8 ul×10.5=84 ul) with OptiPro medium (92 ul×10.5=966 ul) in a microtube; adding 100 ul into the plasmid tube and mix by pipetting; After 5 min, add 200 ul into each well and swirl to mix. mix enhancer (15×10.2=153 ul) with feed (600×10.2=6.12 ml), add 615 ul into each well. Culture supernatant collected at intervals was spun down at low speed and high speed, then frozen at −80 deg. Aliquots were analyzed for protein concentration by nanodrop, and then an equivalent amount loaded onto 4-12% SDS-PAGE gels for molecular weight distribution analysis. […]
(In western blotting, separated proteins are transferred to a membrane and probed.)

For “IGF2: Human IGF2 polypeptide, amino acids 25 to 91 of SEQ ID NO. 32 (i.e. SEQ ID NO. 29)”, the “% eMyHC area” value with DM1 human myoblast cells was determined as 5.49%. In addition, in the data set with Aged human myoblasts (48 h), the “MYF5 −48 h, fold change” value was found to be 0.409 and the “MYOD1 −48 h, fold change” value was determined as 0.519. In addition, in the data set on Aged human myoblasts (72 h), the “MYF5 −72h, fold change” value is 0.708 and the “MYOG −72 h, fold change” value amounted to 0.018. In data set [1], the Kd is approximately 100 nM. In data set [2], the bothlimb grip strength entry is listed as “effective at improving”, the forelimb grip strength result is listed as “effective at improving”, the muscle weight entry was “effective at improving” and the total work result is recorded as “effective at improving”. Further, in data set [2], the treadmill running distance entry is recorded as “effective at improving” and the “treadmill running time to exhaustion” value is listed as “effective at improving”. Besides, the “cleavage of the amino acid backbone when expressed from CHO cells” value in data set [3] was “cleaved”.
